Holding throughout (assay): off-target hydrolase inhibition by competitive ABPP – gel-based competitive ABPP, fluorescence, selectivity assay for DAGLb inhibitor project, late-stage follow-up (AID 602355)
Experiment [1] has as its system ABHD11. The following applies: mouse proteome gel ABPP, FP-rhodamine fluorescence, at 10 µM (top of the series).
Experiment [2] has as its system ABHD12. The following applies: mouse proteome gel ABPP, FP-rhodamine fluorescence, at 10 µM (top of the series).
The target in experiment [3] is Acyl-protein thioesterase 1 (Mus musculus) (UniProt P97823). The following applies: mouse proteome gel ABPP, FP-rhodamine fluorescence; LYPLA1; at 10 µM (top of the series).
Experiment [4] relates to FAAH. As to conditions: mouse proteome gel ABPP, FP-rhodamine fluorescence, at 10 µM (top of the series).
For experiment [5], the system named is LYPLA2. As to conditions: mouse proteome gel ABPP, FP-rhodamine fluorescence, at 10 µM (top of the series).
The test system of experiment [6] is MAGL. As to conditions: mouse proteome gel ABPP, FP-rhodamine fluorescence, at 10 µM (top of the series).
The target of experiment [7] is Monoacylglycerol lipase ABHD6 (Mus musculus) (UniProt Q8R2Y0). The following applies: mouse proteome gel ABPP, FP-rhodamine fluorescence, at 10 µM (top of the series).
For experiment [8], the target named is Platelet-activating factor acetylhydrolase (Mus musculus) (UniProt Q60963). The following applies: mouse proteome gel ABPP, FP-rhodamine fluorescence; PLA2G7; at 10 µM (top of the series).
Experiment [9] concerns the target Platelet-activating factor acetylhydrolase 2, cytoplasmic (Mus musculus) (UniProt Q8VDG7). The following applies: mouse proteome gel ABPP, FP-rhodamine fluorescence; PAFAH2; at 10 µM (top of the series).
In experiment [10] the target is Diacylglycerol lipase-beta (Mus musculus) (UniProt Q91WC9). As to conditions: mouse proteome gel ABPP, FP-rhodamine fluorescence; DAGLb; at 10 µM (top of the series).
Experiment [11] deals with PNPLA6. As to conditions: mouse proteome gel ABPP, FP-rhodamine fluorescence, at 10 µM (top of the series).

Activity calls are given as the source filed them. How the calls were made is not given here.

Sequence of Monoacylglycerol lipase ABHD6 (Mus musculus) (Q8R2Y0 whole entry, looked up): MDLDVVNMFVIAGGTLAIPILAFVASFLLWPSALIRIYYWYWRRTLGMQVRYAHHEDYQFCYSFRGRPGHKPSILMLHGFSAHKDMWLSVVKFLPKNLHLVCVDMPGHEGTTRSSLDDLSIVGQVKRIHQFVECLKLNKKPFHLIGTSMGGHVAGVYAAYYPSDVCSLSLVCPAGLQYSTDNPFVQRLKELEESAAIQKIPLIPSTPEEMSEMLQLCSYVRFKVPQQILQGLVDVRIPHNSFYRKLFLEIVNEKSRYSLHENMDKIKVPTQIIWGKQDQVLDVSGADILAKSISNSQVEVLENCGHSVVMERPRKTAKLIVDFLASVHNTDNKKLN
Sequence of Acyl-protein thioesterase 1 (Mus musculus) (P97823 whole entry, looked up): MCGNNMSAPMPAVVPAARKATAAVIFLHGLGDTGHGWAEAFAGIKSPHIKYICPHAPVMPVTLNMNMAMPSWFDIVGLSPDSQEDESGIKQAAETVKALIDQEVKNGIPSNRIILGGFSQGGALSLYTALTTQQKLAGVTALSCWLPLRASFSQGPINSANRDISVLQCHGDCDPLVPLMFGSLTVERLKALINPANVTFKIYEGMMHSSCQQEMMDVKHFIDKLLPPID
Sequence of Platelet-activating factor acetylhydrolase 2, cytoplasmic (Mus musculus) (Q8VDG7 whole entry, looked up): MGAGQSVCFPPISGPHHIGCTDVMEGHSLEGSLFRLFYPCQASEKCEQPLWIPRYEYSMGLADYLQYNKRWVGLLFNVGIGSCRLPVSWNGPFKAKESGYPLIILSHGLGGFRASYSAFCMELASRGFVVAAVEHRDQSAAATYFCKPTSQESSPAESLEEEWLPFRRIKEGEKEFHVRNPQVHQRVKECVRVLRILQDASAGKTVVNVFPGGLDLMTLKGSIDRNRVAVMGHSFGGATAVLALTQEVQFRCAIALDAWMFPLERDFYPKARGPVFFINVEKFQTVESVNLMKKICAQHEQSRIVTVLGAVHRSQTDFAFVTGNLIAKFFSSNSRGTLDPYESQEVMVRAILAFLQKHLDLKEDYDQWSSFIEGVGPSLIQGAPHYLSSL
Sequence of Platelet-activating factor acetylhydrolase (Mus musculus) (Q60963 whole entry, looked up): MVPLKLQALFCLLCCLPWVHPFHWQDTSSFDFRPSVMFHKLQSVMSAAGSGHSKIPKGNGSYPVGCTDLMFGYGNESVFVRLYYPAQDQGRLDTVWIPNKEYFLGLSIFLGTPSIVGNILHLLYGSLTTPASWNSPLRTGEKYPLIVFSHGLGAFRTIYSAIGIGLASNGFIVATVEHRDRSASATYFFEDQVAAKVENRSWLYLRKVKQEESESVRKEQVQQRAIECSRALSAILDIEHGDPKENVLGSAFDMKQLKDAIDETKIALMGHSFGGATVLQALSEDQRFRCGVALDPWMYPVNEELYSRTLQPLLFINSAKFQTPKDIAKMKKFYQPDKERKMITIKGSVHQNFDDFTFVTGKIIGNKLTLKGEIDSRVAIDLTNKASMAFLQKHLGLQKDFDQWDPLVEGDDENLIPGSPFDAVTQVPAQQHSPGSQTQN
Sequence of Diacylglycerol lipase-beta (Mus musculus) (Q91WC9 whole entry, looked up): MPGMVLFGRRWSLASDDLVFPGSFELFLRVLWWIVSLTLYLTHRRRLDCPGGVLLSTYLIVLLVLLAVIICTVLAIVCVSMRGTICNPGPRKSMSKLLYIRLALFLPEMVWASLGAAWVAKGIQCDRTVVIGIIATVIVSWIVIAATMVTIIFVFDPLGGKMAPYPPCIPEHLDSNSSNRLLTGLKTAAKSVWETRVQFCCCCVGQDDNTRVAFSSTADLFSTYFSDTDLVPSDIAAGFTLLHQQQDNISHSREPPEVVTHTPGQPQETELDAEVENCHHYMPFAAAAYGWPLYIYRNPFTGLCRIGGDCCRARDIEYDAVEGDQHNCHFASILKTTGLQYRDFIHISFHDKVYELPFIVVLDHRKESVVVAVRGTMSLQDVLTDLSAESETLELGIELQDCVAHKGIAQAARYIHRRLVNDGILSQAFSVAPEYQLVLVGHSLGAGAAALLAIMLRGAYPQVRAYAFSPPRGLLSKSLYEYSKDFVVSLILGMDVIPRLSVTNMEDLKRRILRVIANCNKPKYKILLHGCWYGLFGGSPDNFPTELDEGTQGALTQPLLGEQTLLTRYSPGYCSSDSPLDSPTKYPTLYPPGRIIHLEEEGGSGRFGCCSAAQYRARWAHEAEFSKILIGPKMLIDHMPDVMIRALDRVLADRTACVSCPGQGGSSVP

As a reminder, the inhibition is the relative decrease from the control value, in per cent. As for `O=C(N1CCCCC1Cc1ccccc1)n1cc(-c2ccc(-c3ccccc3)cc2)nn1` (stereo not drawn), the inhibition was 0% (inactive) in [1]; 20% (inactive) in experiment [2]; 0% (inactive) in experiment [3]; 25% (inactive) in [4]; 0% (inactive) in experiment [5]; 0% (inactive) in experiment [6]. For the same compound, the figures for the inhibition in experiment [7], in experiment [8] and in experiment [9] were 100%, 100% and 80% (inactive), respectively.
With `COc1ccc(-c2ccc(-c3cn(C(=O)N4CCCCC4c4ccccc4)nn3)cc2)cc1` (stereo not drawn), the inhibition in experiment [1] is 0% (inactive); in experiment [2] it was 0% (inactive); in experiment [3], 15% (inactive); in [10], 20% (inactive); in experiment [4] it was 70%; in [5], 15% (inactive). The inhibition in experiment [6] was 0% (inactive); in experiment [7], 100%; in [11], 55% (inactive).
In the case of `COc1ccccc1-c1ccc(-c2cn(C(=O)N3CCCCC3Cc3ccccc3)nn2)cc1` (stereo not drawn), the inhibition in [1] is 0% (inactive); in experiment [2], 0% (inactive); in [3], 0% (inactive); in experiment [10] it was 95%; in experiment [4], 0% (inactive); in experiment [5] it was 0% (inactive). Besides, the inhibition was 100% in experiment [6], 100% in experiment [7], 85% in experiment [8] and 15% (inactive) in experiment [9].
